In the CheMixHub viscosity set:

Assay: xn = mol fraction of the nth substance listed

CC=CC(=O)OCC + CCO
viscosity [mPa·s], 101 kPa
Conditions | x1 = 0.0991 | x1 = 0.1985 | x1 = 0.2994 | x1 = 0.3961 | x1 = 0.5006 | x1 = 0.6 | x1 = 0.6968 | x1 = 0.7816 | x1 = 0.8996
293.15 K | 1.026 | 0.929 | 0.9257 | 0.9219 | 0.878 | 0.8293 | 0.8016 | 0.8351 | 0.8122
298.15 K | 0.9334 | 0.8523 | 0.8465 | 0.8404 | 0.8061 | 0.7663 | 0.7402 | 0.7648 | 0.7535
303.15 K | 0.8498 | 0.7812 | 0.7751 | 0.7739 | 0.7411 | 0.7061 | 0.6855 | 0.7052 | 0.7
313.15 K | 0.7166 | 0.6615 | 0.6607 | 0.6588 | 0.6372 | 0.6091 | 0.5958 | 0.6134 | 0.6108
323.15 K | 0.6156 | 0.5747 | 0.5702 | 0.5686 | 0.5537 | 0.5363 | 0.5284 | 0.5414 | 0.5401

CCCCCC[N+]1(C)CCOCC1.[Br-] + OCCOCCOCCO
100 kPa, x1 = 0.2005
Conditions | viscosity [mPa·s]
293.15 K | 111.2
298.15 K | 83.7
303.15 K | 64.32
308.15 K | 50.24
313.15 K | 40.12
318.15 K | 32.53
323.15 K | 26.79

O=S=O + CCOCC
298.15 K, 101 kPa
Conditions | viscosity [mPa·s]
x1 = 0.0574 | 0.2303
x1 = 0.0951 | 0.2353
x1 = 0.1329 | 0.24
x1 = 0.1607 | 0.2443

Cc1cc(C)cc(C)c1 + CO
293.15 K, 101 kPa
Conditions | viscosity [mPa·s]
x2 = 0.2 | 0.696
x2 = 0.4 | 0.699
x2 = 0.5 | 0.715
x2 = 0.6 | 0.721
x2 = 0.8 | 0.683

O=S=O + CCCCN(CCCC)CCCC
303.15 K, 100 kPa
Conditions | viscosity [mPa·s]
x1 = 0.21 | 1.4
x1 = 0.35 | 3.2
x1 = 0.45 | 12.9

O=C1CCCN1 + COCCO
298.15 K, 101 kPa
Conditions | viscosity [mPa·s]
x1 = 0.0049 | 1.544
x1 = 0.0127 | 1.567
x2 = 0.0059 | 14.01
x2 = 0.0144 | 13.59
x2 = 0.0218 | 13.27
x2 = 0.0326 | 12.77
x2 = 0.0446 | 12.37
x2 = 0.0689 | 11.33
x2 = 0.0849 | 10.74
x2 = 0.1078 | 10.07
x2 = 0.127 | 9.467
x2 = 0.1824 | 8.072
x2 = 0.2392 | 6.994
x2 = 0.2918 | 6.075
x2 = 0.3249 | 5.599
x2 = 0.3711 | 5.006
x2 = 0.4202 | 4.585
x2 = 0.5242 | 3.631
x2 = 0.5773 | 3.264
x2 = 0.6342 | 2.895
x2 = 0.6686 | 2.717
x2 = 0.7286 | 2.446
x2 = 0.7755 | 2.248
x2 = 0.8174 | 2.089
x2 = 0.8558 | 1.966
x2 = 0.9003 | 1.819
x2 = 0.9214 | 1.756
x2 = 0.9381 | 1.703
x2 = 0.9524 | 1.669
x2 = 0.9729 | 1.604

OC[C@H]1O[C@H](O[C@H]2O[C@H](CO)[C@@H](O)[C@H](O)[C@H]2O)[C@H](O)[C@@H](O)[C@@H]1O + O
298.15 K, 101 kPa
Conditions | viscosity [mPa·s]
x1 = 0.0009 | 0.935
x1 = 0.001798 | 0.982
x1 = 0.002695 | 1.032
x1 = 0.00359 | 1.084
x1 = 0.004484 | 1.139
x1 = 0.005375 | 1.197

CCC(C)CC + CCCCCCCCCCCCCCCC
298 K, 101.33 kPa
Conditions | viscosity [mPa·s]
x1 = 0.1071 | 2.635
x1 = 0.2084 | 2.224
x1 = 0.3095 | 1.87
x1 = 0.4069 | 1.554
x1 = 0.5054 | 1.274
x1 = 0.6034 | 1.022
x1 = 0.7044 | 0.7813
x1 = 0.8037 | 0.5939
x1 = 0.902 | 0.4194

NC(CO)(CO)CO + O
Conditions | viscosity [mPa·s]
298.15 K, 101 kPa, x1 = 0.001 | 0.91
298.15 K, 101 kPa, x1 = 0.01 | 1.03
298.15 K, 101 kPa, x1 = 0.022 | 1.18
298.15 K, 101 kPa, x1 = 0.034 | 1.46
298.15 K, 101 kPa, x1 = 0.055 | 1.97
303 K, 101 kPa, x1 = 0.06 | 2.19
303.15 K, 101 kPa, x1 = 0.001 | 0.79
303.15 K, 101 kPa, x1 = 0.01 | 0.91
303.15 K, 101 kPa, x1 = 0.022 | 1.05
303.15 K, 101 kPa, x1 = 0.034 | 1.28
303.15 K, 101 kPa, x1 = 0.055 | 1.77
303.15 K, 101.33 kPa, x1 = 0.008 | 0.905
303.15 K, 101.33 kPa, x1 = 0.02 | 1.042
303.15 K, 101.33 kPa, x1 = 0.04 | 1.475
303.15 K, 101.33 kPa, x1 = 0.047 | 1.789
308.15 K, 101 kPa, x1 = 0.001 | 0.69
308.15 K, 101 kPa, x1 = 0.01 | 0.79
308.15 K, 101 kPa, x1 = 0.022 | 0.94
308.15 K, 101 kPa, x1 = 0.034 | 1.14
308.15 K, 101 kPa, x1 = 0.055 | 1.54
313 K, 101 kPa, x1 = 0.06 | 1.68
313.15 K, 101 kPa, x1 = 0.001 | 0.62
313.15 K, 101 kPa, x1 = 0.01 | 0.71
313.15 K, 101 kPa, x1 = 0.022 | 0.85
313.15 K, 101 kPa, x1 = 0.034 | 1.03
313.15 K, 101 kPa, x1 = 0.055 | 1.37
313.15 K, 101.33 kPa, x1 = 0.008 | 0.738
313.15 K, 101.33 kPa, x1 = 0.02 | 0.846
313.15 K, 101.33 kPa, x1 = 0.026 | 0.981
313.15 K, 101.33 kPa, x1 = 0.047 | 1.399
318.15 K, 101 kPa, x1 = 0.001 | 0.58
318.15 K, 101 kPa, x1 = 0.01 | 0.65
318.15 K, 101 kPa, x1 = 0.022 | 0.77
318.15 K, 101 kPa, x1 = 0.034 | 0.93
318.15 K, 101 kPa, x1 = 0.055 | 1.22
323 K, 101 kPa, x1 = 0.06 | 1.32
323.15 K, 101 kPa, x1 = 0.001 | 0.52
323.15 K, 101 kPa, x1 = 0.022 | 0.71
323.15 K, 101 kPa, x1 = 0.034 | 0.84
323.15 K, 101 kPa, x1 = 0.055 | 1.11
323.15 K, 101.33 kPa, x1 = 0.008 | 0.616
323.15 K, 101.33 kPa, x1 = 0.02 | 0.705
323.15 K, 101.33 kPa, x1 = 0.026 | 0.811
323.15 K, 101.33 kPa, x1 = 0.04 | 0.962
323.15 K, 101.33 kPa, x1 = 0.047 | 1.129

CN(c1ccccc1)c1ccccc1 + Oc1ccccc1
101 kPa
Conditions | viscosity [mPa·s]
293.25 K, x2 = 0.0915 | 7.08
293.25 K, x2 = 0.169 | 7.15
293.25 K, x2 = 0.2877 | 7.3
293.25 K, x2 = 0.4271 | 7.64
293.25 K, x2 = 0.5326 | 7.98
293.25 K, x2 = 0.6464 | 8.45
293.25 K, x2 = 0.7197 | 8.85
293.25 K, x2 = 0.7988 | 9.35
293.25 K, x2 = 0.8785 | 9.95
293.25 K, x2 = 0.942 | 10.48
303.15 K, x2 = 0.0926 | 5.1
303.15 K, x2 = 0.1813 | 5.13
303.15 K, x2 = 0.328 | 5.19
303.15 K, x2 = 0.5156 | 5.42
303.15 K, x2 = 0.6595 | 5.7
303.15 K, x2 = 0.7615 | 5.97
303.15 K, x2 = 0.8443 | 6.26
303.15 K, x2 = 0.9 | 6.5
303.15 K, x2 = 0.9463 | 6.73
313.15 K, x2 = 0.0926 | 3.785
313.15 K, x2 = 0.1813 | 3.76
313.15 K, x2 = 0.328 | 3.77
313.15 K, x2 = 0.5156 | 3.88
313.15 K, x2 = 0.6595 | 4.02
313.15 K, x2 = 0.7615 | 4.15
313.15 K, x2 = 0.8443 | 4.28
313.15 K, x2 = 0.9 | 4.4
313.15 K, x2 = 0.9463 | 4.51

CN(c1ccccc1)c1ccccc1 + Oc1ccccc1Cl
viscosity [mPa·s], 101 kPa
Conditions | x2 = 0.1862 | x2 = 0.3326 | x2 = 0.47 | x2 = 0.5927 | x2 = 0.6593 | x2 = 0.7583 | x2 = 0.8455 | x2 = 0.9249
293.15 K | 6.47 | 5.95 | 5.53 | 5.2 | 5.02 | 4.79 | 4.59 | 4.4
303.15 K | 4.635 | 4.305 | 4.03 | 3.805 | 3.685 | 3.51 | 3.36 | 3.215
313.15 K | 3.5 | 3.25 | 3.04 | 2.85 | 2.75 | 2.6 | 2.49 | 2.39

Cc1cc(C)cc(C)c1 + CCO
293.15 K, 101 kPa
Conditions | viscosity [mPa·s]
x2 = 0.2 | 0.718
x2 = 0.4 | 0.764
x2 = 0.6 | 0.854
x2 = 0.8 | 0.983
